From publication PMC10044120, “Potent and selective covalent inhibition of the papain-like protease from SARS-CoV-2” (Nature Communications, 2023)
pIC50: −log10 of the molar value. “And” between values parts separate entries of the source, which are not always exact repeats. Equal entries are not always repeated. Where two headings read alike, the source gives them in different places.

Experiments:
PLpro from SARS-CoV-2 [1] = target: T1, PLpro from SARS-CoV-2 (Severe acute respiratory syndrome coronavirus 2, UniProt P0DTD1); experiment: biochemical; format: biochemical; settings: 0.5 h
PLpro from SARS-CoV-2 [2] = target: T1, PLpro from SARS-CoV-2; experiment: biochemical; format: biochemical; parameters: mean (kobs plot, Supplementary Figure 6 II): unit: min^-1
PLpro = PLpro (Severe acute respiratory syndrome coronavirus 2, UniProt P0DTD1); experiment: Intact protein ESI-MS to assess covalent adduct formation; format: binding, SARS-CoV-2; parameters: unit not given here
SARS-CoV-2 PLpro [3] = target: T2, SARS-CoV-2 PLpro (Severe acute respiratory syndrome coronavirus 2, UniProt P0DTD1); experiment: biochemical; settings: PLpro 50 nM, Ub-rhodamine110
SARS-CoV-2 PLpro [4] = target: T2, SARS-CoV-2 PLpro; experiment: biochemical; settings: PLpro 10 nM, ISG15-CHOP2
USP30 = target: T3, USP30 (Homo sapiens, UniProt Q70CQ3); experiment: biochemical; settings: USP30 10 nM, Ub-rhodamine110
T3 construct: purchased LifeSensors, Inc. (Malvern, PA)

USP8 = target: T4, USP8 (Homo sapiens, UniProt P40818); experiment: biochemical; settings: USP8 10 nM, Ub-rhodamine110
T4 construct: USP2c, USP4, USP7, USP8c, USP15, USP30WT, and UCH-L1; purchased LifeSensors, Inc. (Malvern, PA)

USP7 = target: T5, USP7 (Homo sapiens, UniProt Q93009); experiment: biochemical; settings: USP7 5 nM, Ub-CHOP2
T5 construct: purchased LifeSensors, Inc. (Malvern, PA)

UCHL1 = target: T6, UCHL1 (Homo sapiens, UniProt P09936); experiment: biochemical; settings: UCHL1 10 nM, Ub-rhodamine110
T6 construct: purchased LifeSensors, Inc. (Malvern, PA)

[5] = tested on: SARS-CoV-2 isolate USA-WA1/2020; settings: for inhibition: read-out: cytopathic effect, % cell viability, duplicate wells
[6] = tested on: SARS-CoV-2 isolate USA-WA1/2020; experiment: microbe, parasite or virus in culture
[7] = Metabolic stability in rat liver microsomes; settings: Sprague-Dawley
[8] = Metabolic stability in rat liver S9 fraction; settings: Sprague-Dawley
[9] = Metabolic stability in human liver microsomes
[10] = Metabolic stability in mouse liver microsomes; settings: CD-1, mouse
[11] = Metabolic stability in human liver S9 fraction
[12] = Metabolic stability in mouse liver S9 fraction; settings: CD-1, mouse

T3 sequence (Q70CQ3 whole entry): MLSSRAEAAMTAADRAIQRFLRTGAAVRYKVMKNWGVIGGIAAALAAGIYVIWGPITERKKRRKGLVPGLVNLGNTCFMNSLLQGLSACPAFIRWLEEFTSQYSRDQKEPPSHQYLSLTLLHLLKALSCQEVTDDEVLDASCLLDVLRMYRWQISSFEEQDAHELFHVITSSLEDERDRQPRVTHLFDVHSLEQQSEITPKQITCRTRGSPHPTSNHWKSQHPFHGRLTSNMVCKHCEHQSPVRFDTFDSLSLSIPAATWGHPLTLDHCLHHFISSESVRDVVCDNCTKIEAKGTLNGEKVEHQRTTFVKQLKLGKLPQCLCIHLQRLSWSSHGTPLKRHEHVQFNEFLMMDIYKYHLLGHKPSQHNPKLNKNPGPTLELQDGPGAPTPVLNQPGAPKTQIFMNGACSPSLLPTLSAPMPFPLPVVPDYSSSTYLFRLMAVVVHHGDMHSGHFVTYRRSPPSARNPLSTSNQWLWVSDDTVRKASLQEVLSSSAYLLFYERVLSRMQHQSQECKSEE
T5 sequence (Q93009 whole entry): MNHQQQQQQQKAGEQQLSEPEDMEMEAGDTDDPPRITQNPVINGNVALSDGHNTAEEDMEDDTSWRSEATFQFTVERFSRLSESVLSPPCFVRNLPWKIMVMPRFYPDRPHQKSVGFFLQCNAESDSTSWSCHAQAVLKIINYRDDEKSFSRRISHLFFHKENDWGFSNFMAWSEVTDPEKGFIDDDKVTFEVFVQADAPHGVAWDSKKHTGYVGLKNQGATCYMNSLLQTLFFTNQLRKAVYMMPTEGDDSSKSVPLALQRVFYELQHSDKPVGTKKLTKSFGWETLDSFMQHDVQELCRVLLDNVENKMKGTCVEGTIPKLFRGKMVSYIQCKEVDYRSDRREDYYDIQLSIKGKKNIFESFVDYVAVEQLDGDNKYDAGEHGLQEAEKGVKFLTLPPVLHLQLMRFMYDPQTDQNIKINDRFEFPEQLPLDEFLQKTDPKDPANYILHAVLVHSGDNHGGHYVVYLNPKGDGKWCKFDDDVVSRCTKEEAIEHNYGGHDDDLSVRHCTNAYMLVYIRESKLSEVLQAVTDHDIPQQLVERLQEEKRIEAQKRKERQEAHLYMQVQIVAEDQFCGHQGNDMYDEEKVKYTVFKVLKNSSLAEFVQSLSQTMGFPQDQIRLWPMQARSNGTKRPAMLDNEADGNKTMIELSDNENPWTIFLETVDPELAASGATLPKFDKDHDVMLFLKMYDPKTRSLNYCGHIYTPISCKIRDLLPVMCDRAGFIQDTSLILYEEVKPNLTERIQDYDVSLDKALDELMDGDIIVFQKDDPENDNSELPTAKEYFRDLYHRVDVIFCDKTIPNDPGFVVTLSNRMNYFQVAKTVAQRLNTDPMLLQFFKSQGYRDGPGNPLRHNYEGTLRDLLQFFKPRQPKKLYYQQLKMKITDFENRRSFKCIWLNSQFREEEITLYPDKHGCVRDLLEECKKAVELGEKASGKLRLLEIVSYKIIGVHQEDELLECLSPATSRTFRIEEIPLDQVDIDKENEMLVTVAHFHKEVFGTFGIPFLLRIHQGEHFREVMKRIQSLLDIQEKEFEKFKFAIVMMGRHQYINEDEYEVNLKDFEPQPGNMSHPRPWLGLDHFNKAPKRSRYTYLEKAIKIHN
T6 sequence (P09936 whole entry): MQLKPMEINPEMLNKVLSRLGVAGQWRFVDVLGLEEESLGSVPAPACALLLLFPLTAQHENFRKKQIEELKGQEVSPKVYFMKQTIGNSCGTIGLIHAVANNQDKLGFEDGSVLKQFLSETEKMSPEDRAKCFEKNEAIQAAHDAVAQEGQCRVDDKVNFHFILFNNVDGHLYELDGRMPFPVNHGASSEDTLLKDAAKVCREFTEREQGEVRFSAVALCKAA
T4 sequence (P40818 777-1109): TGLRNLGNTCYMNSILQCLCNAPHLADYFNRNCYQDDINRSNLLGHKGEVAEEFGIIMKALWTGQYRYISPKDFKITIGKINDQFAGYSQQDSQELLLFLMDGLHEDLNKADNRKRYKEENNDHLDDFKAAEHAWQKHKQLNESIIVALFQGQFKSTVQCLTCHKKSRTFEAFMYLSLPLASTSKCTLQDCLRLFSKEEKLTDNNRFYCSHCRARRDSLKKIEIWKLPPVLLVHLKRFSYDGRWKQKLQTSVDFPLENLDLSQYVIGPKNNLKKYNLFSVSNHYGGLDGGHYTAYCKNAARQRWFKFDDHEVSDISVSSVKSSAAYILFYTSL

COC(=O)/C=C/C(=O)NNC(=O)CCc1ccccc1C(=O)N[C@H](C)c1cccc2ccccc12 [Compound 7, methyl(R,E)-4-(2-(3-(2-((1-(naphthalen-1 yl)ethyl)carbamoyl)phenyl)propanoyl)hydrazineyl)-4-oxobut-2-enoate]
remaining activity at 0.06 µM (PLpro from SARS-CoV-2 [1]; 0.06 uM inhibitor): 66.6% | remaining activity at 0.2 µM (PLpro from SARS-CoV-2 [1]; 0.20 uM inhibitor): 17.4% | remaining activity at 20.03 µM (PLpro from SARS-CoV-2 [1]; 20.03 uM inhibitor): 2.85% | remaining activity at 200 µM (PLpro from SARS-CoV-2 [1]; 200.00 uM inhibitor, 30-min preincubation): 4.35% | remaining activity at 0.06 µM (PLpro from SARS-CoV-2 [1]; inhibitor 0.06 uM): 66.6% | remaining activity at 0.2 µM (PLpro from SARS-CoV-2 [1]; inhibitor 0.20 uM): 17.4% | remaining activity at 20 µM (PLpro from SARS-CoV-2 [1]; inhibitor 20.00 uM): 2.85% | remaining activity at 200 µM (PLpro from SARS-CoV-2 [1]; inhibitor 200.00 uM): 4.35% | Kobs, mean (PLpro from SARS-CoV-2 [2]; 0.10 uM): 0.00424 min⁻¹ | Kobs, mean (PLpro from SARS-CoV-2 [2]; 0.20 uM): 0.03867 min⁻¹ | Kobs, mean (PLpro from SARS-CoV-2 [2]; 0.30 uM): 0.09135 min⁻¹ | remaining activity at 0.1 µM (PLpro from SARS-CoV-2 [2]; 5 min, read-out: PLpro activity after preincubation, inhibitor 0.1 uM, preincubation 5 min): 95.7% | remaining activity at 0.2 µM (PLpro from SARS-CoV-2 [2]; 5 min, read-out: PLpro activity after preincubation, inhibitor 0.2 uM, preincubation 5 min): 105% | remaining activity at 0.3 µM (PLpro from SARS-CoV-2 [2]; 10 min, read-out: PLpro activity after preincubation, inhibitor 0.3 uM, preincubation 10 min): 30.7% | remaining activity at 0.3 µM (PLpro from SARS-CoV-2 [2]; 0.5 h, read-out: PLpro activity after preincubation, inhibitor 0.3 uM, preincubation 30 min): 17.7% | remaining activity at 0.1 µM (PLpro from SARS-CoV-2 [2]; 1 h, read-out: PLpro activity after preincubation, inhibitor 0.1 uM, preincubation 60 min): 74.1% | remaining activity at 0.2 µM (PLpro from SARS-CoV-2 [2]; 1 h, read-out: PLpro activity after preincubation, inhibitor 0.2 uM, preincubation 60 min): 2.6% | remaining activity at 0.1 µM (PLpro from SARS-CoV-2 [2]; […], read-out: PLpro activity after preincubation, inhibitor 0.1 uM, preincubation 15 min): 104% | remaining activity at 0.1 µM (PLpro from SARS-CoV-2 [2]; […], read-out: PLpro activity after preincubation, inhibitor 0.1 uM, preincubation 45 min): 75.3% | remaining activity at 0.2 µM (PLpro from SARS-CoV-2 [2]; […], read-out: PLpro activity after preincubation, inhibitor 0.2 uM, preincubation 15 min): 59.4% | remaining activity at 0.2 µM (PLpro from SARS-CoV-2 [2]; […], read-out: PLpro activity after preincubation, inhibitor 0.2 uM, preincubation 90 min): 0.514% | remaining activity at 0.3 µM (PLpro from SARS-CoV-2 [2]; […], read-out: PLpro activity after preincubation, inhibitor 0.3 uM, preincubation 15 min): 26.7% | Time dep. (time-dependent inhibition) (PLpro from SARS-CoV-2 [2]; fluorogenic peptide assay, varied preincubation time): Yes | mean (kobs plot, Supplementary Figure 6 II) (PLpro from SARS-CoV-2 [2]; inhibitor 0.10 uM): 0.00424 | mean (kobs plot, Supplementary Figure 6 II) (PLpro from SARS-CoV-2 [2]; inhibitor 0.20 uM): 0.03867 | mean (kobs plot, Supplementary Figure 6 II) (PLpro from SARS-CoV-2 [2]; inhibitor 0.30 uM): 0.09135 | Measured adduct mass (PLpro): 474 | Hill slope (SARS-CoV-2 PLpro [3]): 1.06 | Hill slope (SARS-CoV-2 PLpro [4]): 1.34 | pIC50 (USP30): < 4.52 | pIC50 (USP8): < 4.52 | pIC50 (USP7): < 4.52 | pIC50 (UCHL1): < 4.52 | % cell viability, cytopathic effect ([5]; 2.08 uM): 64.9953% | % cell viability, cytopathic effect ([5]; 8.33 uM): 95.2833% and 73.4931% | % cell viability, cytopathic effect ([5]; 16.65 uM): 97.0077% | inhibition ([5]; [inhibitor] 2.08 uM, 2.08 µM): 65% | inhibition ([5]; [inhibitor] 8.33 uM, 8.33 µM): 95.3% and 73.5% | inhibition ([5]; [inhibitor] 16.65 uM, 16.65 µM): 97% | viability at […] ([6]; Severe acute respiratory syndrome coronavirus 2, Vero C1008, read-out: % cell viability, cytopathic effect): 79.3% and 52.3% | viability at 2.08 µM ([6]; Severe acute respiratory syndrome coronavirus 2, Vero C1008, read-out: % cell viability, cytopathic effect, 2.08 uM): 80.5% | viability at 16.65 µM ([6]; Severe acute respiratory syndrome coronavirus 2, Vero C1008, read-out: % cell viability, cytopathic effect, 16.65 uM): 88.8% | inhibition at […] ([6]; Severe acute respiratory syndrome coronavirus 2, Vero C1008, read-out: cytopathic effect, % cell viability): 79.3% and 52.3% | inhibition at 2.08 µM ([6]; Severe acute respiratory syndrome coronavirus 2, Vero C1008, read-out: cytopathic effect, % cell viability, [inhibitor] 2.08 uM, duplicate wells): 80.5% | inhibition at 16.65 µM ([6]; Severe acute respiratory syndrome coronavirus 2, Vero C1008, read-out: cytopathic effect, % cell viability, [inhibitor] 16.65 uM, duplicate wells): 88.8% | half-life [7]: 46 min | microsomal CLint [7]: 151 µL/min/mg | half-life [8]: 31 min | microsomal CLint [8]: 75.5 µL/min/mg | half-life [9]: 50 min | microsomal CLint [9]: 139 µL/min/mg | half-life [10]: 13 min | microsomal CLint [10]: 540 µL/min/mg | half-life [11]: 60 min | microsomal CLint [11]: 38.9 µL/min/mg | half-life [12]: 9 min | microsomal CLint [12]: 266 µL/min/mg
